In patent publication US5189159A, “8a-AZA-8a-homoerythromycin cyclic iminoethers” (Merck & Co., Inc., priority 1992, dated 1993):
≈ marks a conversion by molar mass, not a printed value.

Legend:
[1] = system: Enterococcus faecalis MB 5407; experiment: MIC, liquid turbidimetric microtiter method; type: cell-based; settings: MB5407, broth media
Description: (§1) The compounds of formula (II) show antibacterial activity against a range of aerobic Gram positive and negative bacteria, as shown in the following Table. The assay employs a liquid turbidimetric microtiter method for determination of the minimum inhibitory concentration (MIC) in broth media. […] The MIC is generally not an absolute value but rather a concentration range that falls within a two-fold dilution limit. Generally twelve two-fold dilutions of the test compound are employed with the initial concentration set at 128 mcg/ml.

[2] = system: Enterococcus faecium MB 5416; experiment: MIC, liquid turbidimetric microtiter method; type: cell-based; settings: MB5416, broth media
Description: as §1

Escherichia coli MB 2884 = experiment: MIC, liquid turbidimetric microtiter method; type: cell-based; settings: MB2884, broth media
Description: as §1

Escherichia coli MB 4926 = experiment: MIC, liquid turbidimetric microtiter method; type: cell-based; settings: MB4926, broth media
Description: as §1

[3] = system: Klebsiella pneumoniae MB 4005; experiment: MIC, liquid turbidimetric microtiter method; type: cell-based; settings: MB4005, broth media
Description: as §1

[4] = system: Pseudomonas stutzeri MB 1231; experiment: MIC, liquid turbidimetric microtiter method; type: cell-based; settings: Stutzerimonas stutzeri, MB1231, broth media
Description: as §1

[5] = system: Staphylococcus aureus MB 2865; experiment: MIC, liquid turbidimetric microtiter method; type: cell-based; settings: MB2865, broth media
Description: as §1

[6] = system: Staphylococcus epidermidis MB 5414; experiment: MIC, liquid turbidimetric microtiter method; type: cell-based; settings: MB5414, broth media
Description: as §1

[7] = system: Staphylococcus haemolyticus MB 5412; experiment: MIC, liquid turbidimetric microtiter method; type: cell-based; settings: MB5412, broth media
Description: as §1

[8] = system: Steptococcus pneumoniae CL 2883; experiment: MIC, liquid turbidimetric microtiter method; type: cell-based; settings: broth media
Description: as §1

[9] = system: Streptococcus agalactiae CL 1343; experiment: MIC, liquid turbidimetric microtiter method; type: cell-based; settings: CL1343, broth media
Description: as §1

[10] = system: Streptococcus pyogenes MB 2874; experiment: MIC, liquid turbidimetric microtiter method; type: cell-based; settings: MB2874, broth media
Description: as §1

[11] = system: Streptococcus pyogenes MB 5406; experiment: MIC, liquid turbidimetric microtiter method; type: cell-based; settings: MB5406, broth media
Description: as §1

[12] = system: Streptococcus viridans CL 2943; experiment: MIC, liquid turbidimetric microtiter method; type: cell-based; settings: CL2943, broth media
Description: as §1

[13] = system: Yersinia enterocoltica CL 1598; experiment: MIC, liquid turbidimetric microtiter method; type: cell-based; settings: CL1598, broth media
Description: as §1

[14] = isomerization / stability of 9,12-epoxy isomers; type: physicochemical
Description: As previously noted, Beckmann rearrangement of oxime (III) under anhydrous conditions leads to a product mixture comprised of the 6,9- and 9,12-bridged iminoethers (VI) and (VII). The 9,12-bridged product, which is formed by internal trapping of the intermediate nitrilium species by the hydroxyl group at C-12, is initially isolated as a mixture of major and minor forms that are isomeric about the imino double bond. The initial mixture of isomers equilibrates at room temperature, both in solution or on storing as a crude foam, to approximately a 1:1 mixture of isomers. The first-formed, major isomer can be isolated from the mixture by crystallization from nitromethane solution.
A solution of the mixture of 9,12-epoxy isomers in nitromethane (2 mL) deposited a large, crystalline mass on standing at room temperature for several days. The mixture was diluted with nitromethane (10 mL) and filtered to remove the solid portion, which was washed with nitromethane (2 mL) and dried under high vacuum. The white solid thus obtained (0.9 g) was shown by ^1 H NMR spectroscopy to be the major 9,12-epoxy isomer which is initially formed in the Beckmann rearrangement reaction.

| SMILES | MIC [1] | MIC [2] | MIC (Escherichia coli MB 2884) | MIC (Escherichia coli MB 4926) | MIC [3] | MIC [4] | MIC [5] | MIC [6] | MIC [7] | MIC [8] | MIC [9] | MIC [10] | MIC [11] | MIC [12] | MIC [13] | solid state stability [14] |
| --- | --- | --- | --- | --- | --- | --- | --- | --- | --- | --- | --- | --- | --- | --- | --- | --- |
| CC[C@H]1OC(=O)[C@H](C)[C@@H](O[C@H]2C[C@@](C)(OC)[C@@H](O)[C@H](C)O2)[C@H](C)[C@@H](O[C@@H]2O[C@H](C)C[C@H](N(C)C)[C@H]2O)[C@@]2(C)C[C@@H](C)N=C(O2)[C@H](C)[C@@H](O)[C@]1(C)O [(VI), 9-Deoxo-6-deoxy-6,9-epoxy-8a,9-didehydro-8a-aza-8a-homoerythromycin A] | 32 µg/mL (≈ 43.8 µM) | 8 µg/mL (≈ 10.9 µM) | 128 µg/mL (≈ 175 µM) | 8 µg/mL (≈ 10.9 µM) | > 128 µg/mL | 0.5 µg/mL (≈ 0.684 µM) | 16 µg/mL (≈ 21.9 µM) | 32 µg/mL (≈ 43.8 µM) | 8 µg/mL (≈ 10.9 µM) | 0.5 µg/mL (≈ 0.684 µM) | 1 µg/mL (≈ 1.37 µM) | 1 µg/mL (≈ 1.37 µM) | 128 µg/mL (≈ 175 µM) | 16 µg/mL (≈ 21.9 µM) | 128 µg/mL (≈ 175 µM) | – |
| CC[C@H]1OC(=O)[C@H](C)[C@@H](O[C@H]2C[C@@](C)(OC)[C@@H](O)[C@H](C)O2)[C@H](C)[C@@H](O[C@@H]2O[C@H](C)C[C@H](N(C)C)[C@H]2O)[C@](C)(O)C[C@@H](C)N=C2O[C@@]1(C)[C@H](O)[C@H]2C (single isomer, unassigned; isomer 9) [crystalline isomer, 9-deoxo-12-deoxy-9,12-epoxy-8a,9-didehydro-8a-aza-8a-homoerythromycin A] | – | – | – | – | – | – | – | – | – | – | – | – | – | – | – | stable in the solid state |
| CC[C@H]1OC(=O)[C@H](C)[C@@H](O[C@H]2C[C@@](C)(OC)[C@@H](O)[C@H](C)O2)[C@H](C)[C@@H](O[C@@H]2O[C@H](C)C[C@H](N(C)C)[C@H]2O)[C@](C)(O)C[C@@H](C)N=C2O[C@@]1(C)[C@H](O)[C@H]2C [(VII), 9-Deoxo-12-deoxy-9,12-epoxy-8a,9-didehydro-8a-aza-8a-homoerythromycin A] | > 128 µg/mL | 16 µg/mL (≈ 21.9 µM) | 128 µg/mL (≈ 175 µM) | 32 µg/mL (≈ 43.8 µM) | > 128 µg/mL | 2 µg/mL (≈ 2.74 µM) | 16 µg/mL (≈ 21.9 µM) | 16 µg/mL (≈ 21.9 µM) | 32 µg/mL (≈ 43.8 µM) | 4 µg/mL (≈ 5.47 µM) | 4 µg/mL (≈ 5.47 µM) | 2 µg/mL (≈ 2.74 µM) | > 128 µg/mL | 4 µg/mL (≈ 5.47 µM) | – | – |
